In ChEMBL document CHEMBL1158799, “The transgenic Arabidopsis plant system, pER8-GFP, as a powerful tool in searching for natural product estrogen-agonists/antagonists” (J Nat Prod, 2005) one finds Activity data, which are given here for three compounds.

Assay [1] has as its target T1, Estrogen receptor (Homo sapiens) (UniProt P03372).
T1 sequence (whole entry): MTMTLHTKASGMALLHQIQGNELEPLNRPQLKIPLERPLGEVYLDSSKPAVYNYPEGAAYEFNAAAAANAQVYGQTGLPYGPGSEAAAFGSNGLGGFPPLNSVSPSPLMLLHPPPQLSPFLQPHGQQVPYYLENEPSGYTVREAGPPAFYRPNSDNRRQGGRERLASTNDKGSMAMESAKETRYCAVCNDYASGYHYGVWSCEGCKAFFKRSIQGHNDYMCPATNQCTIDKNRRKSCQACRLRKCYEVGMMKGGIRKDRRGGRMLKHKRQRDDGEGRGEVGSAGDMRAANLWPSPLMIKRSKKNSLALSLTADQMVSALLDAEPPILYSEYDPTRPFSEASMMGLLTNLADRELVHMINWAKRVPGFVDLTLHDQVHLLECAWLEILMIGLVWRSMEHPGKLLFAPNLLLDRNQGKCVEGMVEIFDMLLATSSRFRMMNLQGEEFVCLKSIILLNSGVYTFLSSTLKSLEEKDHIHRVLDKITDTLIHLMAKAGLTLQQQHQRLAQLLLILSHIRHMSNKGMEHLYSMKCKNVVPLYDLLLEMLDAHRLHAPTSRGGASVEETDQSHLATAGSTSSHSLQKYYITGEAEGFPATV
Briefly: Activity at human estrogen receptor expressed in transgenic Arabidopsis plant at >10 uM by pER8-GFP reporter assay. A general note: Reporter assays use an easily measured gene product as a stand-in for the process of interest.

Assay [2] deals with T1, Estrogen receptor (Homo sapiens). Briefly: Activity at human estrogen receptor expressed in transgenic Arabidopsis plant at >100 ug/mL by pER8-GFP reporter assay.
For assay [3] the target is unchanged. Briefly: Activity at human estrogen receptor expressed in transgenic Arabidopsis plant at >100 uM by pER8-GFP reporter assay.

Calls of active or inactive are those of the source. The calls are words filed in the database; no cut-off is given here.

`C[C@]12CC[C@H]3[C@@H](CCC4=CC(=O)CC[C@@]43C)[C@@H]1CC[C@@H]2O`: in assay [1], the outcome was Active. Consider `O=c1c(-c2ccc(O)cc2)coc2c([C@@H]3O[C@H](CO)[C@@H](O)[C@H](O)[C@H]3O)c(O)ccc12`, for which the result in assay [2] was Active.

With `O=C1C=CC(O)(c2cc(=O)c3c(O)cc(O)cc3o2)C=C1`, the result in assay [3] was Active.
